According to ChEMBL document CHEMBL1201862, “PubChem BioAssay data set” (2004):
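The compound was tested at five concentrations on cells cultured in 96-well plates, with a 48-hour exposure period. At the GI50, growth is halved.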 The source made the active and inactive calls. Cut-off read from the data, not from the text of the source: active = GI50 up to about 1.1 µM and inactive = higher.

What was measured:
Test in all cases: NCI tumour cell line growth inhibition, 48 h
[1] = system: HOP-92
[2] = system: ACHN
[3] = system: NCI-H460
[4] = system: NCI-H23
[5] = system: SF-295
[6] = system: NCI-H522
[7] = system: SNB-75
[8] = system: DLD-1
[9] = system: M14
[10] = system: COLO 205
[11] = system: HT-29
[12] = system: LOX IMVI
[13] = system: OVCAR-3
[14] = system: OVCAR-5
[15] = system: SW-620
[16] = system: OVCAR-4
[17] = system: NCI-H226
[18] = system: SR
[19] = system: LXFL 529
[20] = system: RXF 393
[21] = system: SN12C
[22] = system: SK-MEL-5
[23] = system: EKVX
[24] = system: DMS-273
[25] = system: U-251
[26] = system: HCT-15
[27] = system: IGROV-1
[28] = system: XF498
[29] = system: HOP-62
[30] = system: MOLT-4
[31] = system: UO-31
[32] = system: SK-OV-3
[33] = system: CCRF-CEM
[34] = system: SNB-78
[35] = system: CAKI-1
[36] = system: KM12
[37] = system: DMS-114
[38] = system: K562
[39] = system: UACC-62
[40] = system: TK-10
[41] = system: M19-MEL
[42] = system: HCC 2998
[43] = system: SF-268
[44] = system: HCT-116
[45] = system: SK-MEL-28
[46] = system: Malme-3M
[47] = system: SK-MEL-2
[48] = system: OVCAR-8
[49] = system: SNB-19
[50] = system: KM-20L2
[51] = system: A549
[52] = system: 786-0
[53] = system: SF-539

C=CNC(=S)n1nc(-c2ccccc2NC(=O)C(F)(F)F)c(=O)n(C(=S)NC=C)c1=S
GI50 [1]: 10.5 µM (inactive) | GI50 [2]: 24.4 µM (inactive) | GI50 [3]: 15.1 µM (inactive) | GI50 [4]: 26.7 µM (inactive) | GI50 [5]: 19.2 µM (inactive) | GI50 [6]: 11.2 µM (inactive) | GI50 [7]: 26 µM (inactive) | GI50 [8]: 16.7 µM (inactive) | GI50 [9]: 34.6 µM (inactive) | GI50 [10]: > 10 µM (inactive) | GI50 [11]: 18.6 µM (inactive) | GI50 [12]: 31.8 µM (inactive) | GI50 [13]: 13.3 µM (inactive) | GI50 [14]: 26.7 µM (inactive) | GI50 [15]: 59.8 µM (inactive) | GI50 [16]: 3.58 µM (inactive) | GI50 [17]: 21.2 µM (inactive) | GI50 [18]: 16.4 µM (inactive) | GI50 [19]: 19.5 µM (inactive) | GI50 [20]: 73.6 µM (inactive) | GI50 [21]: 48.9 µM (inactive) | GI50 [22]: 13.3 µM (inactive) | GI50 [23]: 22.3 µM (inactive) | GI50 [24]: 26.8 µM (inactive) | GI50 [25]: 34.9 µM (inactive) | GI50 [26]: 16.4 µM | GI50 [27]: 54 µM (inactive) | GI50 [28]: 30.2 µM (inactive) | GI50 [29]: 29.6 µM (inactive) | GI50 [30]: 15.4 µM (inactive) | GI50 [31]: 13.9 µM (inactive) | GI50 [32]: 30.3 µM (inactive) | GI50 [33]: 24.9 µM (inactive) | GI50 [34]: 51.1 µM (inactive) | GI50 [35]: 23.1 µM (inactive) | GI50 [36]: 29.3 µM (inactive) | GI50 [37]: 12.3 µM (inactive) | GI50 [38]: 18.1 µM (inactive) | GI50 [39]: 45.8 µM (inactive) | GI50 [40]: > 100 µM (inactive) | GI50 [41]: 31.8 µM (inactive) | GI50 [42]: 47.9 µM (inactive) | GI50 [43]: 15.4 µM (inactive) | GI50 [44]: > 100 µM (inactive) | GI50 [45]: > 100 µM (inactive) | GI50 [46]: 56.2 µM (inactive) | GI50 [47]: 73.3 µM (inactive) | GI50 [48]: 33 µM (inactive) | GI50 [49]: 28.6 µM (inactive)

CCC1(C)NN=c2s/c(=C/c3ccc(OC)cc3)c(=O)n2N1 (centres undefined)
GI50 [50]: > 100 µM (inactive) | GI50 [1]: 17.6 µM (inactive) | GI50 [2]: > 100 µM (inactive) | GI50 [3]: > 100 µM (inactive) | GI50 [4]: > 100 µM (inactive) | GI50 [51]: > 100 µM (inactive) | GI50 [5]: > 100 µM (inactive) | GI50 [6]: > 100 µM (inactive) | GI50 [7]: 38.2 µM (inactive) | GI50 [8]: > 100 µM (inactive) | GI50 [9]: > 100 µM (inactive) | GI50 [10]: > 100 µM (inactive) | GI50 [11]: > 100 µM (inactive) | GI50 [12]: > 100 µM (inactive) | GI50 [13]: 80.4 µM (inactive) | GI50 [14]: > 100 µM (inactive) | GI50 [15]: > 100 µM (inactive) | GI50 [16]: 35.7 µM (inactive) | GI50 [17]: > 100 µM (inactive) | GI50 [18]: > 100 µM (inactive) | GI50 [19]: > 100 µM (inactive) | GI50 [20]: 49.4 µM (inactive) | GI50 [21]: > 100 µM (inactive) | GI50 [22]: > 100 µM (inactive) | GI50 [23]: > 100 µM (inactive) | GI50 [24]: > 100 µM (inactive) | GI50 [25]: > 100 µM (inactive) | GI50 [27]: > 100 µM (inactive) | GI50 [28]: > 100 µM (inactive) | GI50 [52]: > 100 µM (inactive) | GI50 [29]: > 100 µM (inactive) | GI50 [30]: > 100 µM (inactive) | GI50 [31]: > 100 µM (inactive) | GI50 [32]: > 100 µM (inactive) | GI50 [33]: > 100 µM (inactive) | GI50 [34]: > 100 µM (inactive) | GI50 [35]: > 100 µM (inactive) | GI50 [36]: > 100 µM (inactive) | GI50 [53]: 90.6 µM (inactive) | GI50 [38]: > 100 µM (inactive) | GI50 [39]: > 100 µM (inactive) | GI50 [40]: > 100 µM (inactive) | GI50 [42]: > 100 µM (inactive) | GI50 [43]: 65 µM (inactive) | GI50 [44]: > 100 µM (inactive) | GI50 [45]: > 100 µM (inactive) | GI50 [46]: > 100 µM (inactive) | GI50 [47]: > 100 µM (inactive) | GI50 [48]: > 100 µM (inactive) | GI50 [49]: > 100 µM (inactive)
